Our source for the inhibition, remaining binding and IC50 values is patent US20240423995A1, “C-KIT INHIBITORS AND USES FOR TREATING AND PREVENTING INFLAMMATORY CONDITIONS” (GEORGETOWN UNIVERSITY, priority 2023, published 2024).

One assay deals with T1, KIT (D816V) (Homo sapiens, UniProt P10721, D816V).
T1 construct: purchased Eurofins DiscoverX Corporation
Kind of assay: KINOMEscan competition binding screen, KIT (D816V). The following applies: for remaining binding at 10 µM: read-out: % Ctrl @ 10 μM. The method, then:
(§1) The KINOMEscan™ screening platform (Eurofins DiscoverX Corporation, San Diego, USA) was performed using an active site-directed competition binding assay to quantitatively measure interactions between BK40143, BK40197, BK40195, and BK40196 and more than 450 human kinases and disease relevant mutant variants. […] Screening “hits” were identified by measuring the amount of kinase captured in test (BK40143, BK40197, BK40195, and BK40196) versus control samples by using a quantitative and ultra-sensitive qPCR method that detects the associated DNA label. BK40143, BK40197, BK40195, and BK40196 were screened at 10 μM concentration, and results for primary screen binding interactions were reported as ‘% Ctrl’ (POC), where lower numbers indicate stronger hits and calculated as follows:
(§2) [formula] • test compound=BK40143 or BK40197 or BK40195 or BK40196 • negative control=DMSO (100% Ctrl) • positive control=control compound (0% Ctrl)
(§3) Based on screening data of profiled compounds, a proportional relationship between primary screening results and corresponding compound/target affinities can be described as binding constants (Kd values) for the indicated ranges of percent of control (PoC) values, with tighter binding (higher affinity) interactions associated with lower PoC values, and weaker binding (lower affinity) associated with higher PoC values. Briefly, kinase-tagged T7 phage strains were grown in parallel in 24-well blocks in an E. coli host derived from the BL21 strain. E. coli were grown to log-phase and infected with T7 phage from a frozen stock (multiplicity of infection=0.4) and incubated with shaking at 32° C. until lysis (90-150 minutes). The lysates were centrifuged (6,000×g) and filtered ([…]) to remove cell debris. The remaining kinases were produced in HEK-293 cells and subsequently tagged with DNA for qPCR detection. Streptavidin-coated magnetic beads were treated with biotinylated small molecule ligands for 30 minutes at room temperature to generate affinity resins for kinase assays. The liganded beads were blocked with excess biotin and washed with blocking buffer (SeaBlock (Pierce), 1% BSA, 0.05% Tween 20, 1 mM DTT) to remove unbound ligand and to reduce non-specific phage binding. Binding reactions were assembled by combining kinases, liganded affinity beads, and test compounds in 1× binding buffer (20% SeaBlock, 0.17×PBS, 0.05% Tween 20, 6 mM DTT). Test compounds were prepared as 100× stocks in 100% DMSO and directly diluted into the assay. All reactions were performed in polypropylene 384-well plates in a final volume of 0.02 ml. The assay plates were incubated at room temperature with shaking for 1 hour and the affinity beads were washed with wash buffer (1×PBS, 0.05% Tween 20). The beads were then re-suspended in elution buffer (1×PBS, 0.05% Tween 20, 0.5 μM non-biotinylated affinity ligand) and incubated at room temperature with shaking for 30 minutes. The kinase concentration in the eluates was measured by qPCR.

A further assay deals with T2, KIT (A829P) (Homo sapiens, UniProt P10721, A829P).
T2 construct: purchased Eurofins DiscoverX Corporation
Kind of assay: KINOMEscan competition binding screen, KIT (A829P). The following applies: for remaining binding at 10 µM: read-out: % Ctrl @ 10 μM. On the procedure: as §1, §2, §3

The next assay addresses T3, FYN (Homo sapiens, UniProt P06241).
T3 construct: purchased Eurofins DiscoverX Corporation
Kind of assay: KINOMEscan competition binding screen, FYN. As to conditions: for remaining binding at 10 µM: read-out: % Ctrl @ 10 μM. On the procedure:
as §1, §2, §3

The next assay has as its target T4, SYK (Homo sapiens, UniProt P43405).
T4 construct: purchased Eurofins DiscoverX Corporation
Kind of assay: KINOMEscan competition binding screen, SYK. The following applies: for remaining binding at 10 µM: read-out: % Ctrl @ 10 μM. On the procedure:
as §1, §2, §3

A further assay concerns the target T5, KIT (D816H) (Homo sapiens, UniProt P10721, D816H).
T5 construct: purchased Eurofins DiscoverX Corporation
The experiment in a line: KINOMEscan competition binding screen, KIT (D816H). The following applies: for remaining binding at 10 µM: read-out: % Ctrl @ 10 μM. The method, then: as §1, §2, §3

In the next assay the target is T6, KIT (L576P) (Homo sapiens, UniProt P10721, L576P).
T6 construct: purchased Eurofins DiscoverX Corporation
The experiment in a line: KINOMEscan competition binding screen, KIT (L576P). The following applies: for remaining binding at 10 µM: read-out: % Ctrl @ 10 μM. The method, then: as §1, §2, §3

The next assay concerns the target T7, KIT autoinhibited (Homo sapiens, UniProt P10721).
T7 construct: purchased Eurofins DiscoverX Corporation
The experiment in a line: KINOMEscan competition binding screen, KIT autoinhibited. As to conditions: for remaining binding at 10 µM: read-out: % Ctrl @ 10 μM. On the procedure: as §1, §2, §3

The next assay concerns the target T8, KIT (V559D, V654A) (Homo sapiens, UniProt P10721, V559D/V654A).
T8 construct: purchased Eurofins DiscoverX Corporation
Kind of assay: KINOMEscan competition binding screen, KIT (V559D, V654A). As to conditions: for remaining binding at 10 µM: read-out: % Ctrl @ 10 μM. The method, then: as §1, §2, §3

The target in another assay is T9, DDR1 (Homo sapiens, UniProt Q08345).
T9 construct: purchased Luceome Biotechnologies, LLC
The experiment in a line: KINASESEEKER competition binding assay, DDR1. As to conditions: minimum 8-point curve, duplicate. The method, then: (§4) Kinase assays were performed using KINASESEEKER™ (Luceome Biotechnologies, LLC; Tucson, AZ). KINASESEEKER™ is a homogeneous competition binding assay in which the displacement of an active site-dependent probe by an inhibitor is measured by a change in luminescence signal. Luminescence readout translates into a highly sensitive and robust assay with low background and minimal interference from test compounds. See J. Am. Chem. Soc., 2010, 132, 11727-11735.
(§5) Stock solutions of compounds were serially diluted in DMSO to make assay stocks. Prior to initiating IC50 determination, the test compounds were evaluated for false positives against split-luciferase. The compounds were screened against kinases at a minimum of 8 different concentrations in duplicate. For kinase assays, a 24 μL aliquot of lysate containing Cfluc-kinase and Fos-Nfluc was incubated for 2 hours with either 1 μL of DMSO (for no-inhibitor control) or compound solution in DMSO in presence of a kinase specific probe. 80 μL of luciferin assay reagent was added to each solution and luminescence was immediately measured on a luminometer.
(§6) The % Inhibition and % Activity Remaining was calculated using the following equation: […]
(§7) The % Activity Remaining was plotted against compound concentration and the IC50 was determined for each compound using a minimum 8-point curve.

A further assay addresses T10, c-kit (Homo sapiens, UniProt P10721).
T10 construct: purchased Luceome Biotechnologies, LLC
The experiment in a line: KINASESEEKER competition binding assay, c-kit. As to conditions: minimum 8-point curve, duplicate. The method, then:
as §4, §5, §6, §7

T9 sequence (Q08345 19-913): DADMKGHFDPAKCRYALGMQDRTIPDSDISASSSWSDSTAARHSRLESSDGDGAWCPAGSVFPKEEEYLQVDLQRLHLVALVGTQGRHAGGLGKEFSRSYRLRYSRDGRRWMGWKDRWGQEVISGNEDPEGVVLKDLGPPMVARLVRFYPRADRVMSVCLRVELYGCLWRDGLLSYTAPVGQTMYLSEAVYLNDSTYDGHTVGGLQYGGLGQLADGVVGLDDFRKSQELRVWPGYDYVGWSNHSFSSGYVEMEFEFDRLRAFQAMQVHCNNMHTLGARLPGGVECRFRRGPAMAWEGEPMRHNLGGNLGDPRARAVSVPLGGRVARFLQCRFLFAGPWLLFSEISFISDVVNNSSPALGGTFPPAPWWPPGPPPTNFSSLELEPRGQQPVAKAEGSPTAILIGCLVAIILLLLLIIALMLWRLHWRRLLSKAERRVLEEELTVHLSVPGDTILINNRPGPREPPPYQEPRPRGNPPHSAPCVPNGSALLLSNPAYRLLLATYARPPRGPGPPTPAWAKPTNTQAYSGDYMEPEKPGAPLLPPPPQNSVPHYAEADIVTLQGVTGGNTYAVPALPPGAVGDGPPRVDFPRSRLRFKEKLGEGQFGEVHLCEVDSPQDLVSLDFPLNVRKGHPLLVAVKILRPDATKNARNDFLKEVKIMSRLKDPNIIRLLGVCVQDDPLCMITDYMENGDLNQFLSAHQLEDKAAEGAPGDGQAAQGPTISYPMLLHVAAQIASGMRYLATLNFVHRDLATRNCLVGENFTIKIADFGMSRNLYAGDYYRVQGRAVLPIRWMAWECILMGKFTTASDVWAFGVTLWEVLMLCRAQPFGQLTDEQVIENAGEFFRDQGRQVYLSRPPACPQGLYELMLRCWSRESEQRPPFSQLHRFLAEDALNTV
T10 sequence (P10721 26-976): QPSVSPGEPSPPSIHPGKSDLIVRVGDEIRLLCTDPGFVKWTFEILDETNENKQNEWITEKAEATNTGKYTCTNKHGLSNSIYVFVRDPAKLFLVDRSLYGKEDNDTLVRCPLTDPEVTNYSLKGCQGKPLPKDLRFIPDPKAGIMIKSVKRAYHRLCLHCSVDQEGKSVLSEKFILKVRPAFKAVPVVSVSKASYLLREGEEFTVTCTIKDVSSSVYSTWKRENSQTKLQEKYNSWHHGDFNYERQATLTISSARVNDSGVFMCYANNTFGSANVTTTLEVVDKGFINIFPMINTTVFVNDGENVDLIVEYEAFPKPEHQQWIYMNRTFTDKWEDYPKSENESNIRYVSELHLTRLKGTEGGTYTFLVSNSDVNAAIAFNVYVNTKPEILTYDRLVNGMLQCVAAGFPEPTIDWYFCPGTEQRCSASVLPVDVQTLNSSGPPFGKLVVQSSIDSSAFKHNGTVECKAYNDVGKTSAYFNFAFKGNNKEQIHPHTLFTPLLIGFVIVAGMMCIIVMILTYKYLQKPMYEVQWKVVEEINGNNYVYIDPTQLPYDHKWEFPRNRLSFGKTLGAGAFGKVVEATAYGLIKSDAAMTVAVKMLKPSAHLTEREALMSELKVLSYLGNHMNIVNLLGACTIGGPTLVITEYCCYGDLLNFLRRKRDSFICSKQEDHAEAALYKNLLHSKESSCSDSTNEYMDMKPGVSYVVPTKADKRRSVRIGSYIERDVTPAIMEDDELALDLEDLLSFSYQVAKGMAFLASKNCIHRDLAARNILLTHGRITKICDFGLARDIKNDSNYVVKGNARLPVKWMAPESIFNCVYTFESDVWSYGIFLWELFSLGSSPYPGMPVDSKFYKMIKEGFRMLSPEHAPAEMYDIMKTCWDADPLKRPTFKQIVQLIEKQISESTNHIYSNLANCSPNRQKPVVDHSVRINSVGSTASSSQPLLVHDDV
T3 sequence (P06241 whole entry): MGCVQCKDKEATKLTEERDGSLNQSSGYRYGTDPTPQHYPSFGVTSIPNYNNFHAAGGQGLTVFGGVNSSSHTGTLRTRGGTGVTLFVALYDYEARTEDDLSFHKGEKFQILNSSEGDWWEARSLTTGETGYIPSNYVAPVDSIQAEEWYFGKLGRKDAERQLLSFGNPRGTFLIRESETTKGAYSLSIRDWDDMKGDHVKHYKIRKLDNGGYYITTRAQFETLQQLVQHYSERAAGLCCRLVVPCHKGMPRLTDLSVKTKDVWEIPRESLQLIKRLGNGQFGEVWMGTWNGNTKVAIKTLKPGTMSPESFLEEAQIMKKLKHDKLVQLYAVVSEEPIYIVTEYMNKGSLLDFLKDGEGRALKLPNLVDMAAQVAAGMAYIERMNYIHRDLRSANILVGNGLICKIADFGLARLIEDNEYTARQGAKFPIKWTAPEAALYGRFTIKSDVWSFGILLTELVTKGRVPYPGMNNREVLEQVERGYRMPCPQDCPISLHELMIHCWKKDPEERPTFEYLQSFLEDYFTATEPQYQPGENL
T1 sequence (P10721 26-976 D816V): as the sequence (P10721 26-976) above, with D791V counted along it
T2 sequence (P10721 26-976 A829P): as the sequence (P10721 26-976) above, with A804P counted along it
T8 sequence (P10721 26-976 V559D/V654A): as the sequence (P10721 26-976) above, with V534D, V629A counted along it
T5 sequence (P10721 26-976 D816H): as the sequence (P10721 26-976) above, with D791H counted along it
T6 sequence (P10721 26-976 L576P): as the sequence (P10721 26-976) above, with L551P counted along it
T7 sequence (P10721 544-976 limits assumed): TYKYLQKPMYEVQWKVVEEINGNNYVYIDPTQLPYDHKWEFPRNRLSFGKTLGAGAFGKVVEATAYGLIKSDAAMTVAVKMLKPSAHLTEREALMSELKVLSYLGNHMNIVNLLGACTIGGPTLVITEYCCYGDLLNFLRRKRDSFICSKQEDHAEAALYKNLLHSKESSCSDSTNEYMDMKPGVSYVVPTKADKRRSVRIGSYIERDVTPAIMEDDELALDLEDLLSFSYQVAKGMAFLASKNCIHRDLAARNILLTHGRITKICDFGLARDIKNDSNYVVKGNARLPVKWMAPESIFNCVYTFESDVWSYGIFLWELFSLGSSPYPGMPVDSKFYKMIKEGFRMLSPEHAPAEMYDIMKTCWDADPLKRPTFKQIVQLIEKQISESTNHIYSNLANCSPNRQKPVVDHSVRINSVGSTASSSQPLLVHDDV

By inhibition is commonly meant the drop in the measured response relative to a control, in per cent. Higher therefore signals a response far below the control. For orientation: IC50 means the point on the concentration scale where inhibition reaches its midpoint. A higher IC50 goes with lower potency. As to `Cc1cccc(-c2cc3nccc(Nc4ccccc4)c3s2)c1` [BK40143], the inhibition at 10 µM on KIT (D816V) was determined as 65%; on KIT (A829P), 48%; at FYN, 90%; at SYK it was 94.5%; on KIT (D816H) it was 54%; on KIT (L576P), 96.5%. The inhibition at 10 µM was found to be 31% on KIT autoinhibited and 82% at KIT (V559D, V654A). The remaining binding at 10 µM at KIT (D816V) came out at 35%; at KIT (A829P), 52%; at FYN, 10%; on SYK, 5.5%; on KIT (D816H), 46%; at KIT (L576P) it was 3.5%. Besides, the remaining binding at 10 µM at KIT autoinhibited is 69%; at KIT (V559D, V654A), 18%. Besides, the results for the IC50 at DDR1 and at c-kit were 7.05 ± 1.05 µM and 0.75 ± 0.11 µM, respectively.
As for `Cc1cccc(-c2cc3nccc(Nc4cccc(O)c4)c3s2)c1` [BK40196], the inhibition at 10 µM on KIT (D816V) was 99.8%; on KIT (A829P), 79%; at FYN, 100%; on SYK, 97.7%; on KIT (D816H) it was 94.1%; at KIT (L576P), 99.2%. Also, the inhibition at 10 µM on KIT autoinhibited came out at 44%; at KIT (V559D, V654A) it was 98.7%. Further, the remaining binding at 10 µM at KIT (D816V) is 0.2%; on KIT (A829P), 21%; on FYN it was 0%; at SYK, 2.3%; on KIT (D816H), 3.9%; at KIT (L576P), 0.8%. Further, the remaining binding at 10 µM at KIT autoinhibited is 56%; on KIT (V559D, V654A) it was 1.3%. Also, the IC50 on DDR1 was 1.07 ± 0.13 µM; at c-kit it was 0.276 ± 0.035 µM.
As for `COc1cccc(Nc2ccnc3cc(-c4cccc(C)c4)sc23)c1` [BK40195], the inhibition at 10 µM at KIT (D816V) stood at 98.3%; at KIT (A829P), 93.7%; on FYN, 97.6%; at SYK, 88%; at KIT (D816H) it was 93.9%; on KIT (L576P), 91.9%. Also, the inhibition at 10 µM on KIT autoinhibited stood at 78%; at KIT (V559D, V654A) it was 97.5%. Further, the remaining binding at 10 µM at KIT (D816V) amounted to 1.7%; at KIT (A829P) it was 6.3%; at FYN, 2.4%; on SYK it was 12%; on KIT (D816H), 6.1%; at KIT (L576P), 8.1%. Also, the remaining binding at 10 µM at KIT autoinhibited amounted to 22%; on KIT (V559D, V654A) it was 2.5%. Also, the IC50 stood at 2.2 ± 0.26 µM on DDR1 and 0.288 ± 0.023 µM on c-kit.
Regarding `Cc1cccc(-c2cc3nccc(N4CCOCC4)c3s2)c1` [BK40197], the inhibition at 10 µM was found to be 33% at KIT (D816V); 0% at KIT (A829P); 44% at FYN; 56% on SYK; 0% on KIT (D816H); 98.2% at KIT (L576P). Also, the inhibition at 10 µM stood at 48% on KIT autoinhibited and 79% on KIT (V559D, V654A). Besides, the remaining binding at 10 µM was 67% on KIT (D816V); 100% on KIT (A829P); 56% on FYN; 44% on SYK; 100% on KIT (D816H); 1.8% on KIT (L576P). In addition, the remaining binding at 10 µM on KIT autoinhibited was 52%; on KIT (V559D, V654A) it was 21%.
